Experimental data as given in PubChem BioAssay (NCI).
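How tested: cells in 96-well plates exposed to compound for 48 hours at five concentrations. TGI denotes the concentration required for complete inhibition of growth.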

Experiments:
Experiment in all cases: inhibition of tumour cell growth, NCI panel, 48 h
HS 578T breast = test system: HS 578T breast
HCT-15 colon = test system: HCT-15 colon
SNB-19 CNS = test system: SNB-19 CNS
SK-OV-3 ovarian = test system: SK-OV-3 ovarian
HT29 colon = test system: HT29 colon
UACC-257 melanoma = test system: UACC-257 melanoma
MDA-N = test system: MDA-N
ACHN renal = test system: ACHN renal
HOP-62 NSCLC = test system: HOP-62 NSCLC
SF-539 CNS = test system: SF-539 CNS
PC-3 prostate = test system: PC-3 prostate
SK-MEL-28 melanoma = test system: SK-MEL-28 melanoma
SR leukemia = test system: SR leukemia
RPMI-8226 leukemia = test system: RPMI-8226 leukemia
MDA-MB-435 = test system: MDA-MB-435
DU-145 prostate = test system: DU-145 prostate
COLO 205 colon = test system: COLO 205 colon
HCC-2998 colon = test system: HCC-2998 colon
A498 renal = test system: A498 renal
SF-268 CNS = test system: SF-268 CNS
K-562 leukemia = test system: K-562 leukemia
KM12 colon = test system: KM12 colon
SW-620 colon = test system: SW-620 colon
SN12C renal = test system: SN12C renal
NCI-H226 lung = test system: NCI-H226 lung
786-0 renal = test system: 786-0 renal
UACC-62 melanoma = test system: UACC-62 melanoma
NCI-H23 lung = test system: NCI-H23 lung
EKVX NSCLC = test system: EKVX NSCLC
MCF7 breast = test system: MCF7 breast
MDA-MB-231 breast = test system: MDA-MB-231 breast
SK-MEL-5 melanoma = test system: SK-MEL-5 melanoma
IGROV1 ovarian = test system: IGROV1 ovarian
OVCAR-8 ovarian = test system: OVCAR-8 ovarian
SNB-75 CNS = test system: SNB-75 CNS
MALME-3M melanoma = test system: MALME-3M melanoma
LOX IMVI melanoma = test system: LOX IMVI melanoma
T-47D breast = test system: T-47D breast
HL-60(TB) leukemia = test system: HL-60(TB) leukemia
NCI-H522 lung = test system: NCI-H522 lung
NCI-H460 lung = test system: NCI-H460 lung
UO-31 renal = test system: UO-31 renal
TK-10 renal = test system: TK-10 renal
BT-549 breast = test system: BT-549 breast
MOLT-4 leukemia = test system: MOLT-4 leukemia
SF-295 CNS = test system: SF-295 CNS
CCRF-CEM leukemia = test system: CCRF-CEM leukemia
A549 NSCLC = test system: A549 NSCLC
HCT-116 colon = test system: HCT-116 colon
M14 melanoma = test system: M14 melanoma
CAKI-1 renal = test system: CAKI-1 renal
OVCAR-3 ovarian = test system: OVCAR-3 ovarian
OVCAR-4 ovarian = test system: OVCAR-4 ovarian
U251 CNS = test system: U251 CNS
SK-MEL-2 melanoma = test system: SK-MEL-2 melanoma
OVCAR-5 ovarian = test system: OVCAR-5 ovarian
HOP-92 NSCLC = test system: HOP-92 NSCLC
NCI/ADR-RES ovarian = test system: NCI/ADR-RES ovarian

Measured: TGI

O=P(O)(O)c1ccc2c(c1)OCCOCCOCCOCCO2
not listed: M14 melanoma | CAKI-1 renal | OVCAR-3 ovarian | OVCAR-4 ovarian | U251 CNS | SK-MEL-2 melanoma | OVCAR-5 ovarian | HOP-92 NSCLC | NCI/ADR-RES ovarian
> 100 µM: all other assays above

O=C1/C(=C/c2ccc([N+](=O)[O-])cc2)CCCc2ccccc21
75.9 µM: HS 578T breast
not listed: A498 renal | SK-MEL-5 melanoma | T-47D breast
> 100 µM: all other assays above
